Consider four compounds from publication PMC5791972 (PLoS ONE, 2018).

Some targets named below: 5-HT6 (h) (Homo sapiens, UniProt P50406); 5-HT4e (h) (Homo sapiens, UniProt Q13639); 5-HT1B (Rattus norvegicus, UniProt P28564); M3 (h) (Homo sapiens, UniProt P20309).
A further test deals with T1, GR (h) (Homo sapiens, UniProt P04150).
T1 construct: IM-9 cells; host or cells: IM-9 cells (cytosol)
Format: binding.

The next test concerns NMRI mice. Format: in vivo, mouse. The conditions noted are these: 8 mg/kg oral. The procedure: NMRI mice were habituated to their room for at least 2 to 3 weeks after the delivery and kept under standard conditions in groups of 4–5 animals per cage. Food and water were available ad libitum.
The tail suspension test was performed using with a BIOSEB system. In preparation for the experiment, a piece of tape (approx. 15 cm long) was wrapped around the end of the mouse tail approximately 2 mm before the tip. The tape was then attached to a holding device within the measuring unit at a height of approximately 30cm.
Movements of the animals were monitored and automatically evaluated by corresponding software. The duration of immobility during 6 min observation period was recorded. At the end of the experiment plasma samples were taken and the animals were sacrificed via isofluorane inhalation and subsequent decapitation.

The target in another test is T2, M4 (h) (Homo sapiens, UniProt P08173).
T2 sequence (P08173 1-479): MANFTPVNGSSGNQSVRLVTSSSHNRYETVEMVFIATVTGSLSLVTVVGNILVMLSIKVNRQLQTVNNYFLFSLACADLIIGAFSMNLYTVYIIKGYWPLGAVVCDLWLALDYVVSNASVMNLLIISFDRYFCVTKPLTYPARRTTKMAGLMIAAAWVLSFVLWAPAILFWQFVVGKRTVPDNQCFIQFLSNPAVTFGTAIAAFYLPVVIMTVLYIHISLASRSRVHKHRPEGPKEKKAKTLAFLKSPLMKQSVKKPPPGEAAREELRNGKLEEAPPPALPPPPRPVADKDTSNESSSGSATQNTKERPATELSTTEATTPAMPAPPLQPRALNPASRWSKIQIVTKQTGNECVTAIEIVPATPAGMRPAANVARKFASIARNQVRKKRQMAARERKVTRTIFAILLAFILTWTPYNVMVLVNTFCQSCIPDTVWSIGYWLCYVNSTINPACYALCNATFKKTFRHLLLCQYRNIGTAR

A further test addresses T3, M5 (h) (Homo sapiens, UniProt P08912).
T3 construct: host or cells: CHO cells
T3 sequence (P08912 1-532): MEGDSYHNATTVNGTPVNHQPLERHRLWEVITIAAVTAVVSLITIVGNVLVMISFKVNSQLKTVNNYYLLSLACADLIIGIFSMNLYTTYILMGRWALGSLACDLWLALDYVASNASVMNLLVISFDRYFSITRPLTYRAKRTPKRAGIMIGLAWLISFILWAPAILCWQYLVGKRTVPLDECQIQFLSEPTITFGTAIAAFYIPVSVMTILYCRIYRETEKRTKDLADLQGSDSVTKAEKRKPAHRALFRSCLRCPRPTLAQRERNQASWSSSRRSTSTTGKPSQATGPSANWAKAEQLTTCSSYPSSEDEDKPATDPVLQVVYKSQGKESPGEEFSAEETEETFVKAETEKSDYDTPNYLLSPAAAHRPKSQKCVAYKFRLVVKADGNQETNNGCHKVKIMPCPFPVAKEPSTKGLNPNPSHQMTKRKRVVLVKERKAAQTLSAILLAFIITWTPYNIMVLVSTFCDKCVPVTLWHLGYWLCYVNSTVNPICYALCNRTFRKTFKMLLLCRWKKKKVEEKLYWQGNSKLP
The test is classed as binding.

Several values for one entry are separate records, joined by “and”; a condition that tells them apart may be missing. Equal values may be shown once.

5-HT6 (h), sequence (P50406 whole entry): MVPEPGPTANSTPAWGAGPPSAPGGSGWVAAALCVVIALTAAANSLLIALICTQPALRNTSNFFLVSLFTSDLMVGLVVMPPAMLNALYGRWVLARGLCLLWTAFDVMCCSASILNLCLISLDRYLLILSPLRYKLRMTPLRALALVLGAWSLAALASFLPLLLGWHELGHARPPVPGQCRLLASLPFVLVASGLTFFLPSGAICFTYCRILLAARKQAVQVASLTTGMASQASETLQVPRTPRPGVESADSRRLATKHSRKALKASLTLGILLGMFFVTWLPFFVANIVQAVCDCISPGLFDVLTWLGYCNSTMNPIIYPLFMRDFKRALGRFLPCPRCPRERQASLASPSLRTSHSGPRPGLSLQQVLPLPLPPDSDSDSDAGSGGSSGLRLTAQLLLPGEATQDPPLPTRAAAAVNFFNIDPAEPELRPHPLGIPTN
T1 sequence (P04150 whole entry): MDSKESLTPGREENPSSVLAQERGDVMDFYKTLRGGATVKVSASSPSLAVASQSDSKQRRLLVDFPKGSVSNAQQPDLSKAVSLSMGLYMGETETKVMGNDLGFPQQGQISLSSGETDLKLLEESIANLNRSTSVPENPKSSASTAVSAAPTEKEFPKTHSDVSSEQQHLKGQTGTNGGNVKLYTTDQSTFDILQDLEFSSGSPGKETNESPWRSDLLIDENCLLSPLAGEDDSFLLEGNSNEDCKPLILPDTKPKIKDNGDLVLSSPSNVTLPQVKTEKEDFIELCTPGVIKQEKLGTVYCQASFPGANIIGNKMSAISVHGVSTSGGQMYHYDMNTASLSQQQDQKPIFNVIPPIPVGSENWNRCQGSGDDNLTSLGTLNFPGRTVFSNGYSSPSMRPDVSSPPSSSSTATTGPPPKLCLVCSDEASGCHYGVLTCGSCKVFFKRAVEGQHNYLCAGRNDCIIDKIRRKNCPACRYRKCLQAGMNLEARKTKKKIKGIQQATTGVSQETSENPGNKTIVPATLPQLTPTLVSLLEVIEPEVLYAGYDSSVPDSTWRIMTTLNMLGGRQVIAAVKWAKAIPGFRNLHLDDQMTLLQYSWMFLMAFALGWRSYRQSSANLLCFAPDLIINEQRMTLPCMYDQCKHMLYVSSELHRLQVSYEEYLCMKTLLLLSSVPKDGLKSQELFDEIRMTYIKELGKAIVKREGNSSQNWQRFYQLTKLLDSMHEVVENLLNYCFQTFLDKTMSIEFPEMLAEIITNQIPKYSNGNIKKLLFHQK
M3 (h), sequence (P20309 whole entry): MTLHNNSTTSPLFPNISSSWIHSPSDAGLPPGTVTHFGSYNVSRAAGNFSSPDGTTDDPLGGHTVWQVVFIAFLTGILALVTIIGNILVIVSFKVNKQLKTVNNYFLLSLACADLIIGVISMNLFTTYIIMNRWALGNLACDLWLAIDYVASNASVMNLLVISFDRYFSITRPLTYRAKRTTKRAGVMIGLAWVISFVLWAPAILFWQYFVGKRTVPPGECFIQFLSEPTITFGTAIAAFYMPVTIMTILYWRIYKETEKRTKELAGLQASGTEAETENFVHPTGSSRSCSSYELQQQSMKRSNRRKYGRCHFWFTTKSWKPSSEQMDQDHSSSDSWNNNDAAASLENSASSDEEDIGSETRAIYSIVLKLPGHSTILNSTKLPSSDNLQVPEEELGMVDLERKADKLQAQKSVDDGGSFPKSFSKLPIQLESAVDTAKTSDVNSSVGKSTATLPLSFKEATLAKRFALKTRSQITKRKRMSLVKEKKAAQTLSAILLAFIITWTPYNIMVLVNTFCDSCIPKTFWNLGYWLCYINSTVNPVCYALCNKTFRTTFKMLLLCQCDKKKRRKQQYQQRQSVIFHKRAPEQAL
5-HT4e (h), sequence (Q13639 1-378 isoform Q13639-5): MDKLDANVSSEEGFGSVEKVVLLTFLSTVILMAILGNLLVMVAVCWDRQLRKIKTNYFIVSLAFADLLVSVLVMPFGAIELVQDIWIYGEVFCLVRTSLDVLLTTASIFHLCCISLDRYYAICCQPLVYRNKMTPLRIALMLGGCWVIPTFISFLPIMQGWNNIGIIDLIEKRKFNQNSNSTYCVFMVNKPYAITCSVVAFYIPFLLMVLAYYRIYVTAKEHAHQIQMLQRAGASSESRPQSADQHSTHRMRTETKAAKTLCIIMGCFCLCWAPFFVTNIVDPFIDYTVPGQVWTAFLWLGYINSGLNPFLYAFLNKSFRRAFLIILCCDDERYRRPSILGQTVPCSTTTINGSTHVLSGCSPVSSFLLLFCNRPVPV
5-HT1B, sequence (P28564 whole entry): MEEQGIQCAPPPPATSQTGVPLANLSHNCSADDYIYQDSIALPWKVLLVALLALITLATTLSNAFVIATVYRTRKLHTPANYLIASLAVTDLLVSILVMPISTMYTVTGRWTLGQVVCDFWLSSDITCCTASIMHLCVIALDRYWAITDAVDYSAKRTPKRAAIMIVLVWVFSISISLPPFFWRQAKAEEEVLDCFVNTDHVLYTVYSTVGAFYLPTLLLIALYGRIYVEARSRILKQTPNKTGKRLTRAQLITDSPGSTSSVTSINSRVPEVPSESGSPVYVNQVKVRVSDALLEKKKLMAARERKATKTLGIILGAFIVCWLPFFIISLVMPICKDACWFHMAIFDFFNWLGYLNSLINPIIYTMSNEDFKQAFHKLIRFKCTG

In turn, `C[C@@H]1C[C@H]2[C@@H]3CCC4=CC(=O)C=C[C@]4(C)[C@@]3(F)[C@@H](O)C[C@]2(C)[C@@]1(O)C(=O)CO` [dexamethasone] gave a nH on GR (h) of 1.1.
For the compound `CNCCCN1c2ccccc2CCc2ccccc21` [desipramine, reference compound], the time of immobility result with NMRI mice is recorded as “reduced the time of immobility”.
Consider `NCCc1c[nH]c2ccc(O)cc12` [serotonin], for which the results for the nH at 5-HT6 (h), at 5-HT4e (h) and at 5-HT1B were 1.0, 0.9 and 0.7, respectively.
The IC50 is the concentration needed to halve the response being measured. The term Ki denotes a dissociation constant, usually derived from enzyme kinetics or from competition with a known ligand. High values mean lower affinity, low ones higher affinity. On to `C[N+]1(C)CCC(OC(=O)C(c2ccccc2)c2ccccc2)CC1.[I-]` [4-DAMP, reference compound], for which the nH on M4 (h) worked out at 0.8. Also, at M3 (h), the nH was 1.2. Besides, at M5 (h), the IC50 is 0.76 nM and 0.45 nM; the Ki was 0.38 nM and 0.22 nM; the nH is recorded as 0.8.
